Measured values taken from patent US20250304587A1, “WEE1 INHIBITOR, PREPARATION THEREFOR AND USE THEREOF” (JIANGSU TASLY DIYI PHARMACEUTICAL CO., LTD., priority 2022, published 2025).

Key:
HT-29 cells = assay: Cell Titer-Glo anti-proliferation, HT-29 cells; assay type: cell-based, human; settings: 3 days, read-out: Anti-proliferative activity HT-29 (IC50 class)
Procedure: (§1) A. Evaluation of the Anti-Proliferative Effect of Compounds on BxPC3, HT-29 and OVCAR-3 Cells by the Cell Titer-Glo Method
(§2) Compound solutions of different concentration gradients were prepared. […] The cell growth group without compound was used as a positive control (maximum signal control) and the medium was used as a negative control (minimum signal control), while ensuring that the final level of DMSO in each reaction well was 0.2%. After removing the medium from the 384-well plate, 25 μl of the configured compound at different concentrations was transferred into the well plate and the compound and cells were incubated in the cell incubator at 37° C. with 5% CO2 for 3 days.
(§3) The 384-well plates were removed from the cell incubator and allowed to equilibrate for 1 h to room temperature. 25 μl of Cell Titer-Glo assay was added to each well, lysed on a shaker for 2 min and then read out (Luminescence) using a BMG PHERAStar after 10 min incubation. Calculate the inhibition rate from the luminescence signal.
(§4) to calculate the rate of inhibition of the cells by different concentrations of the compounds. The IC50 of the compound on cell activity inhibition was calculated by fitting a log(inhibitor) vs. response-Variable slope model to GraphPad Prism 6. The fitted equation was: Y=Bottom+(Top-Bottom)/(1+10^((Log IC50−X)*HillSlope)), where Y represents the rate of inhibition and X represents the concentration of the known compound after Log.

BxPC3 cells = assay: Cell Titer-Glo anti-proliferation, BxPC3 cells; assay type: cell-based, human; settings: 3 days, read-out: Anti-proliferative activity BxPC3 (IC50 class)
Procedure: as §1, §2, §3, §4

OVCAR-3 cells = assay: Cell Titer-Glo anti-proliferation, OVCAR-3 cells; assay type: cell-based; settings: 3 days, read-out: Anti-proliferative activity OVCAR-3 (IC50 class)
Procedure: as §1, §2, §3, §4

SMILES	IC50 (HT-29 cells) [µM]	IC50 (BxPC3 cells) [µM]	IC50 (OVCAR-3 cells) [µM]
C=CCn1c(=O)c2cnc(Nc3ccc(N4CCC5(CCN(C)CC5)CC4)c(F)c3)nc2n1-c1ccc2c(n1)C(O)C1(CC2)CC1 (stereo not drawn) [Compound 62b]	0.1 to 1	0.1 to 1	0.1 to 1
C=CCn1c(=O)c2cnc(Nc3ccc(N4CC5CC(C4)N5C(C)C)cc3)nc2n1-c1ccc2c(n1)[C@@](C)(O)C1(CC2)CC1 (single isomer, unassigned) [Compound 35b]	0.1 to 1	0.1 to 1	0.1 to 1
C=CCn1c(=O)c2cnc(Nc3ccc(N4CCN(C)CC4)cc3)nc2n1-c1ccc2c(c1)C(O)(CC)C1(CC1)C2 (racemic) [Compound 29]	1 to 2	2 to 5	0.1 to 1
C=CCn1c(=O)c2cnc(Nc3ccc(N4CCN(C)C(C)C4)cc3)nc2n1-c1ccc2c(n1)C(O)C1(CC2)CC1 (stereo not drawn) [Compound 68b]	0.1 to 1	0.1 to 1	0.1 to 1
C=CCn1c(=O)c2cnc(Nc3ccc4c(c3)CN(C)CC4(C)C)nc2n1-c1ccc2c(n1)C(C)(O)C1(CC1)C2 (racemic) [Compound 9]	1 to 2	> 10	0.1 to 1
C=CCn1c(=O)c2cnc(Nc3ccc(N4C[C@@H](C)O[C@@H](C)C4)cc3)nc2n1-c1ccc2c(n1)[C@@](O)(CC)C1(CC1)C2 (single isomer, unassigned) [Compound 31b]	2 to 5	2 to 5	1 to 2
C=CCn1c(=O)c2cnc(Nc3ccc(N4CCN(C)CC4)cc3)nc2n1-c1ccc2c(n1)[C@](O)(C(F)(F)F)C1(CC2)CC1 (single isomer, unassigned) [Compound 53a]	1 to 2	2 to 5	2 to 5
C=CCn1c(=O)c2cnc(Nc3ccc(N4CC5CC(C4)N5C)cc3)nc2n1-c1ccc2c(n1)[C@@](O)(CC)C1(CC2)CC1 (single isomer, unassigned) [Compound 64b]	0.1 to 1	0.1 to 1	0.1 to 1
C=CCn1c(=O)c2cnc(Nc3ccc(N4CCN(C)CC4)c(C)c3)nc2n1-c1ccc2c(n1)[C@](C)(O)C1(CC2)CC1 (single isomer, unassigned) [Compound 23b]	0.1 to 1	0.1 to 1	0.1 to 1
C=CCn1c(=O)c2cnc(Nc3ccc(N4C[C@@H]5C[C@H]4CN5C)cc3)nc2n1-c1ccc2c(n1)[C@](C)(O)C1(CC2)CC1 (single isomer, unassigned) [Compound 45b]	1 to 2	1 to 2	1 to 2
C=CCn1c(=O)c2cnc(Nc3ccc(N4CC5CCC(C4)N5C)cc3)nc2n1-c1ccc2c(n1)C(O)(CC)C1(CC1)C2 (racemic) [Compound 25]	1 to 2	1 to 2	0.1 to 1
C=CCn1c(=O)c2cnc(Nc3ccc(N4CCN(C)CC4)cc3)nc2n1-c1ccc2c(n1)C(C)(O)C1(CC1)C2 (single isomer, unassigned) [Compound 3a]	1 to 2	1 to 2	1 to 2
C=CCn1c(=O)c2cnc(Nc3ccc(N4CC5CC(C4)N5C(C)=O)cc3)nc2n1-c1ccc2c(n1)[C@](C)(O)C1(CC2)CC1 (single isomer, unassigned) [Compound 50b]	0.1 to 1	0.1 to 1	0.1 to 1
C=CCn1c(=O)c2cnc(Nc3ccc(N4CC5CC(C4)N5C)cc3)nc2n1-c1ccc2c(n1)[C@H](O)C1(CC2)CC1 (single isomer, unassigned) [Compound 34b]	0.1 to 1	0.1 to 1	1 to 2
C=CCn1c(=O)c2cnc(Nc3ccc(N4CCC5(CCN(C)CC5)CC4)cc3)nc2n1-c1ccc2c(n1)[C@](O)(CC)C1(CC2)CC1 (single isomer, unassigned) [Compound 69a]	0.1 to 1	1 to 2	0.1 to 1
C=CCn1c(=O)c2cnc(Nc3ccc(N4CC5CC(C4)N5C(C)=O)cc3)nc2n1-c1ccc2c(n1)[C@@](C)(O)C1(CC2)CC1 (single isomer, unassigned) [Compound 50a]	0.1 to 1	0.1 to 1	0.1 to 1
C=CCn1c(=O)c2cnc(Nc3ccc(N4CC5CN(C)CC5C4)cc3)nc2n1-c1ccc2c(n1)C(O)C1(CC2)CC1 (single isomer, unassigned) [Compound 63a]	0.1 to 1	0.1 to 1	0.1 to 1
C=CCn1c(=O)c2cnc(Nc3ccc(N4CC5CC(C4)N5C)cc3)nc2n1-c1ccc2c(n1)[C@](O)(CC)C1(CC2)CC1 (single isomer, unassigned) [Compound 64a]	0.1 to 1	0.1 to 1	0.1 to 1
